The test system of this experiment is MEK. The experiment in a line: IC50 column of the compound table in Example 1 (assay not given).
`COc1ccc(/C(N)=C2/C(=O)Nc3ccccc32)cc1` [No. o, 3-[Amino-(4-methoxy-phenyl)methylene]-1,3-dihydro-indol-2-one]: half-maximal inhibition (IC50) was put at 3100 nM.

On to `N/C(=C1\C(=O)Nc2ccc(Cl)cc21)c1ccccc1` [No. b, 3-(Amino-phenyl-methylene)-5-chloro-1,3-dihydro-indol-2-one], for which the IC50 (commonly the concentration that inhibits the measured activity by half) worked out at 260 nM. The figure for `N/C(=C1\C(=O)Nc2ccccc21)c1ccc(I)cc1` [No. d, 3-[Amino-(4-iodo-phenyl)-methylene]-1,3-dihydro-indol-2-one] is 2700 nM; for `COc1ccc(/C(N)=C2/C(=O)Nc3cc(Cl)ccc32)cc1` [No. p, 3-(Amino-(4-methoxy-phenyl)-methylene)-6-chloro-1,3-dihydro-indol-2-one] it is 8700 nM; for `N/C(=C1\C(=O)Nc2cc(Cl)ccc21)c1ccc(I)cc1` [No. e, 3-(Amino-(4-iodo-phenyl)-methylene)-6-chloro-1,3-dihydro-indol-2-one] it is 4100 nM. The figure for `N/C(=C1\C(=O)Nc2ccc(Br)cc21)c1cccc(I)c1` [No. n, 3-(Amino-(3-iodo-phenyl)-methylene)-5-bromo-1,3-dihydro-indol-2-one] is 3400 nM. The figure for `N/C(=C1\C(=O)Nc2cc(Cl)ccc21)c1ccccc1` [No. a, 3-(Amino-phenyl-methylene)-6-chloro-1,3-dihydro-indol-2-one] is 1100 nM; for `N/C(=C1\C(=O)Nc2ccccc21)c1ccc(O)cc1` [No. c, 3-[Amino-(4-hydroxy-phenyl)-methylene]-1,3-dihydro-indol-2-one] it is 940 nM. Compound `N/C(=C1\C(=O)Nc2ccc(Cl)cc21)c1ccc(I)cc1` [No. f, 3-(Amino-(4-iodo-phenyl)-methylene)-5-chloro-1,3-dihydro-indol-2-one] registered an IC50 of 1100 nM.

Values taken from US20100197757A1, “OXINDOLES AS KINASE INHIBITORS” (priority 2005, published 2010).
